Columns and labels:
[1] = biological target: Phospholipase A2 group IB (Sus scrofa); experiment: In vitro activity against porcine pancreatic phospholipase-A2 (PLA2) and micellar substrate with deoxycholate (DOC)
[2] = biological target: Phospholipase A2 group IB (pancreatic, Sus scrofa); experiment: In vitro activity against porcine pancreatic phospholipase-A2 (PLA2) and monomerically dispersed substrate

IC50 [1] [nM]	IC50 [2] [nM]	SMILES
2200	95	CCCCCC/C=C/CC(=O)N[C@H](CSc1ccccc1)CC(=O)O [(S)-3-((S)-(E)-Dec-3-enoylamino)-4-phenylsulfanyl-butyric acid]
8500	300	CCCCCC/C=C/CC(=O)N[C@@H](CC(=O)O)CC(C)C [(R)-3-((S)-(E)-Dec-3-enoylamino)-5-methyl-hexanoic acid]
790	23	CCCCCC/C=C/CC(=O)N[C@H](CSc1ccc2ccccc2c1)CC(=O)O [(S)-3-((S)-(E)-Dec-3-enoylamino)-4-(naphthalen-2-ylsulfanyl)-butyric acid]

Further lines, the compound ahead of its results:

SMILES	IC50 [1] [nM]	IC50 [2] [nM]
CCCCCCCCCCCCCCCC(=O)N[C@@H](CCC(=O)O)CC(C)C [(S)-4-((S)-Hexadecanoylamino)-6-methyl-heptanoic acid]	4500	200
CCCCCCCCCC(=O)N[C@@H](CC(=O)O)CC(C)C [(R)-3-((S)-Decanoylamino)-5-methyl-hexanoic acid]	15000	1400
CCCCCCCCCCCCCCCC(=O)N[C@@H](CC(=O)O)CC(C)C [(R)-3-((S)-Hexadecanoylamino)-5-methyl-hexanoic acid]	7300	190
CCCCCCCCCCCCCCCC(=O)N[C@@H](CCCC(=O)O)CC(C)C [(S)-5-((S)-Hexadecanoylamino)-7-methyl-octanoic acid]	19000	1300

From BindingDB's records for doi:10.1021/jm00031a001 (Fisons, 1994)
